Results published in the NIST ThermoML archive (doi:10.1016/j.jct.2011.11.027).
± gives the expanded uncertainty stated by the source.

Columns and labels:
[1] = 298.15 K; 101.33 kPa; Liquid; Vibrating tube method
[2] = refractive index (Na D-line) (dimensionless); conditions: 298.15 K; 101.33 kPa; Liquid; Standard Abbe refractometry
[3] = wn = mass fraction of the nth substance listed; conditions: 298.15 K, 101 kPa, Liquid, Vibrating tube method

In the case of `CCCC[N+]1(C)CCCC1.O=S(=O)([N-]S(=O)(=O)C(F)(F)F)C(F)(F)F`, the mass density [1] is reported as 1394.66 ± 0.58 kg/m3 and the refractive index [2] is reported as 1.42302 ± 0.00042.
`CCCC[N+]1(C)CCCC1.O=S(=O)([O-])C(F)(F)F` [1-butyl-1-methylpyrrolidinium trifluoromethanesulfonate] showed a mass density [1] of 1252.71 ± 0.45 kg/m3 and a refractive index [2] of 1.43287 ± 0.00042.
`C1CCCCC1` [cyclohexane] + CCCCCCC showed a mass density ([3]; w2 = 0) of 773.88 ± 0.13 kg/m3, a mass density ([3]; w2 = 0.0503) of 766.95 ± 0.14 kg/m3 and a mass density ([3]; w2 = 0.0991) of 760.53 ± 0.14 kg/m3. It also gave a mass density ([3]; w2 = 0.2021) of 748.16 ± 0.14 kg/m3, a mass density ([3]; w2 = 0.3118) of 735.69 ± 0.15 kg/m3 and a mass density ([3]; w2 = 0.3926) of 726.61 ± 0.15 kg/m3. The mass density ([3]; w2 = 0.5039) was 717.21 ± 0.16 kg/m3, the mass density ([3]; w2 = 0.666) was 703.79 ± 0.16 kg/m3 and the mass density ([3]; w2 = 0.7062) was 700.61 ± 0.17 kg/m3. It also gave a mass density ([3]; w2 = 0.8061) of 692.71 ± 0.17 kg/m3, a mass density ([3]; w2 = 0.9061) of 685.62 ± 0.18 kg/m3 and a mass density ([3]; w2 = 0.9539) of 682.6 ± 0.18 kg/m3.
Work on `CCCCCCC` [heptane] + C1CCCCC1 yielded a mass density ([3]; w1 = 1) of 679.57 ± 0.18 kg/m3.
